# Data as given in publication PMC7999182, “Interaction of Remdesivir with Clinically Relevant Hepatic Drug Uptake Transporters” (Pharmaceutics, 2021).
# Target: T1, OATP2B1 (Homo sapiens, UniProt O94956)
# T1 construct: expressed in transfected cells
# T1 sequence (O94956 1-709): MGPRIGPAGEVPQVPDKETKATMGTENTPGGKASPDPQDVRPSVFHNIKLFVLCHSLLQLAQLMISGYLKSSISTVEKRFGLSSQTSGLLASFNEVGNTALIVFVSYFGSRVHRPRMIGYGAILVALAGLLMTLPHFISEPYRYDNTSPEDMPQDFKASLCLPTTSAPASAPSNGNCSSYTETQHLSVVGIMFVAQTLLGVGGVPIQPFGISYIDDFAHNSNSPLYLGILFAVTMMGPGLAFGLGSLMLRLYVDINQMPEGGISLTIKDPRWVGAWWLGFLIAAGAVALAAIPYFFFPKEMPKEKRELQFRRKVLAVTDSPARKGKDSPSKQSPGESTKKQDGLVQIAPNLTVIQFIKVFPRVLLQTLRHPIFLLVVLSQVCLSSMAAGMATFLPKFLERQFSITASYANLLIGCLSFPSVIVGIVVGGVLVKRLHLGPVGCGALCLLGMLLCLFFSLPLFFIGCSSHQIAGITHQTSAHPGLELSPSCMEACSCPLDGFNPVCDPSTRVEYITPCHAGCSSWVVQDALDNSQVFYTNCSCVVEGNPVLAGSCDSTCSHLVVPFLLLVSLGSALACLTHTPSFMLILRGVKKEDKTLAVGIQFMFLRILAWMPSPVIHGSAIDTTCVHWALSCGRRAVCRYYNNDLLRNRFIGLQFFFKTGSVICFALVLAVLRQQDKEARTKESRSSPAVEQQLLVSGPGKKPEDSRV
# Test: Inhibition of OATP2B1-mediated estrone sulfate uptake
# Type: cell-based
# Description: Generation, cultivation and characterization of human embryonic kidney (HEK) cells stably expressing OATP1B1 refseq (=OATP1B1*1a), OATP1B1*1b, OATP1B1*5 and OATP1B1*15 [18], OATP1B3 [19], OATP2B1 [13] and OCT1 [20] have been described previously. OATP1B1 cells were cultivated in minimal essential medium (Life Technologies, Paisley, UK) and OATP1B3, OATP2B1 and OCT1 cells were cultivated in Dulbecco’s modified Eagle medium (Sigma, Darmstadt, Germany). Cultivation media were supplemented with 10% fetal calf serum, 100 U/mL penicillin and 100 µg/mL streptomycin. Cells were grown at 37 °C and 5% CO2. Functionality of the cells was confirmed by measuring uptake of prototypic substrates (see Section 2.3 and supplementary material).
# Prototypic substrate uptake was performed as described previously. For this, uptake solutions contained the respective substrate with tracer amounts of radiolabeled substrate. In case of inhibition studies, uptake solutions additionally contained different concentrations of remdesivir. […] Cells were then lysed with 0.2% sodium dodecyl sulfate and intracellular radioactivity was measured by liquid scintillation counting (Tricarb2800, PerkinElmer Life Sciences GmbH, Rodgau, Germany or Hidex 300SL TDCR liquid scintillation counter, Turku, Finland). […]
smiles,measurement,setting,value
CCC(CC)COC(=O)[C@H](C)N[P@](=O)(OC[C@H]1O[C@@](C#N)(c2ccc3c(N)ncnn23)[C@H](O)[C@@H]1O)Oc1ccccc1 [Remdesivir],Effect on prototypic substrate uptake,"1 µM estrone sulfate, 30 sec uptake, different remdesivir concentrations",significant concentration-dependent inhibitory effect
same,Transporter inhibition at 10 µM,"10 µM remdesivir, estrone sulfate as substrate",inhibition
